# Laboratory results taken from BindingDB's records for doi:10.1016/j.chembiol.2011.05.012 (University of Bern, 2011).
# Several values for one entry are separate records, joined by “and”; a condition that tells them apart may be missing. Equal values may be shown once.
# Tests used:
# Cannabinoid receptor 2 = Cannabinoid receptor 2 (Homo sapiens, UniProt P34972); assay: Binding Assay
# Text: (§1) Binding assay with hCB1 and hCB2 receptors.
# Cannabinoid receptor 1 = Cannabinoid receptor 1 (Homo sapiens, UniProt P21554); assay: Binding Assay
# Text: as §1
# Sequence of Cannabinoid receptor 2 (P34972 whole entry): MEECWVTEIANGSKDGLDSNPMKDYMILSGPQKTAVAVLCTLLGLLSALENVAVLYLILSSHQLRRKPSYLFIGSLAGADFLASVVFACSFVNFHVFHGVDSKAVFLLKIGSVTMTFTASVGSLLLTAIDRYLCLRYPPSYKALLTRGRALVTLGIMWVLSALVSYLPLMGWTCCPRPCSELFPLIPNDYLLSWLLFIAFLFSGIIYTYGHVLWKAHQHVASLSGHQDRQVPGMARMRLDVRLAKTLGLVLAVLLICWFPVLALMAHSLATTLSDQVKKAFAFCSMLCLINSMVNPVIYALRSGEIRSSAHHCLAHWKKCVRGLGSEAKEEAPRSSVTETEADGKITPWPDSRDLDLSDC
# Sequence of Cannabinoid receptor 1 (P21554 whole entry): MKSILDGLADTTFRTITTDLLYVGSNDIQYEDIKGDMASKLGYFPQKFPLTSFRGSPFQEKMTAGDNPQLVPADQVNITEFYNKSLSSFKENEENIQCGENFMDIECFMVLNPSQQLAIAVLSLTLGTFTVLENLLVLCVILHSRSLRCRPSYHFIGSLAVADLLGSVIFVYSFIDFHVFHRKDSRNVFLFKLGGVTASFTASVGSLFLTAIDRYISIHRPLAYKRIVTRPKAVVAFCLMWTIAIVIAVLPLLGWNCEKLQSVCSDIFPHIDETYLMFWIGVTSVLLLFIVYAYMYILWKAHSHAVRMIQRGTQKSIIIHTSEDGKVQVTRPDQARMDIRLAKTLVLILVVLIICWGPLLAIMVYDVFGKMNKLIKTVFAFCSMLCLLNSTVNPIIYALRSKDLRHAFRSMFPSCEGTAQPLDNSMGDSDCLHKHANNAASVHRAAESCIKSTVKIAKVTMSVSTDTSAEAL
SMILES,Ki (Cannabinoid receptor 2),Ki (Cannabinoid receptor 1) [µM]
C=CCc1ccc(O)c(-c2cc(CC=C)ccc2O)c1 [2-(2-hydroxy-5-prop-2-enylphenyl)-4-prop-2-enylphenol],> 2000 nM,
"C=CCc1ccc(O)c(-c2ccc(O)c(CC=C)c2)c1 [3',5-diallylbiphenyl-2,4'-diol]",1760 nM,
CCCc1ccc(O)c(-c2ccc(OC)c(CCC)c2)c1,74 nM,> 2
CC(Br)Cc1ccc(O)c(-c2ccc(O)c(CC(C)Br)c2)c1 (stereo unspecified) [Magreth-12b],680 nM,> 5
C=CCc1ccc(OCC)c(-c2ccc(OCC)c(CC=C)c2)c1 [Magreth-19],134 nM,> 3
C=CCc1ccc(O)c(-c2ccc(OCCC)c(CC=C)c2)c1 [Magreth-17b],46 nM,> 5
C=CCc1ccc(O)c(-c2ccc(OCCCCC)c(CC=C)c2)c1 [Magreth-18b],> 3000 nM,> 5
C=CCc1ccc(O)c(-c2ccc(OC)c(/C=C/C)c2)c1 [Magreth-3a],40.8 nM and 59.1 nM,> 5
CCCc1ccc(O)c(-c2ccc(O)c(CCC)c2)c1,1300 nM,> 5
"CCCCC/C=C/C/C=C/C/C=C/C/C=C/CCCC(=O)OC(CO)CO [2-Arachidonoylglycerol, 2-AG]",892 nM,
C=CCc1cc(-c2cc(CC(C)Br)ccc2O)ccc1OC (stereo unspecified) [Magreth-11a],1080 nM,> 5
C=CCc1ccc(O)c(-c2ccc(O)c(/C=C/C)c2)c1 [Magreth-4],1760 nM,> 5
C=CCc1cc(-c2cc(CC(C)Br)ccc2O)ccc1O (stereo unspecified) [Magreth-12a],1260 nM,> 5
COc1ccc(-c2cc(CC(C)Br)ccc2O)cc1CC(C)Br (stereo unspecified) [Magreth-11c],427 nM,> 5
C=CCc1ccc(O)c(-c2ccc(OC)c(CC=C)c2)c1 [Magreth-14a],43.9 nM and 138 nM,0.79
C=CCc1ccc(OCCC)c(-c2ccc(O)c(CC=C)c2)c1 [Magreth-17a],57 nM,> 5
C=CCc1ccc(OCC)c(-c2ccc(O)c(CC=C)c2)c1 [Magreth-16a],51 nM,
C=CCc1ccc(O)c(-c2ccc(OC)c(CC(C)Br)c2)c1 (stereo unspecified) [Magreth-11b],84 nM,0.86
C=CCc1ccc(O)c(-c2ccc(OCC)c(CC=C)c2)c1 [Magreth-16b],40 nM,0.97
C=CCc1ccc(OCCCCC)c(-c2ccc(O)c(CC=C)c2)c1 [Magreth-18a],102 nM,> 5
